Assay results taken from patent US12637428B2, “Isoquinoline derivatives as SIK2 inhibitors” (Cancer Research Technology Limited, priority 2019, dated 2026).

What was measured:
Format in all cases: biochemical
Src = target: T1, Src (Homo sapiens, UniProt P12931); test: Src kinase assay, IMAP fluorescence polarization; details: 50 or 100 μM ATP, average
T1 construct: purchased Life Technologies
Method: (§1) SIK2, SIK1, SIK3, Abl, Src and EPHA2 Kinase Assays
(§2) SIK2, SIK1, SIK3, Abl, Src and EPHA2 assays were performed using an IMAP fluorescence polarization assay format (Molecular Devices Inc.). 0.6-13 nM of each kinase (Life Technologies) was incubated for 60 min at room temperature with 100 nM of either FAM-Abltide, FAM-Srctide or FAM-HDAC protein derived peptide (synthesized by Alta Biosciences, Birmingham UK). Assays were carried out in the presence of 50 or 100 μM ATP in either 20 mM Tris buffer (pH 7.2) containing 4 mM MgCl2, 0.2% BSA and 2 mM DTT (SIK2, SIK1, SIK3, Abl, Src); or 20 mM Tris buffer (pH 8.5) containing 20 mM MgCl2, 0.5% BSA, 0.2% Triton and 5 mM DTT (EPHA2). Typically, dose response analyses were performed over concentration ranges from 0.00005-1 μM. Reactions were stopped by adding 2 assay volumes of 0.25% (v/v) IMAP binding reagent in either an 85:15 ratio (SIK2, SIK1, SIK3, Abl, EPHA2) or 30:70 ratio (Src) of IMAP binding buffers A and B (Molecular Devices). After incubation to allow the detection reagents to bind to the phosphorylated peptide, fluorescence polarization was measured on a Tecan Infinite plate reader at excitation (470 nm) and emission (530 nm) wavelengths. Inhibition was calculated using no inhibitor and no enzyme controls as 0 and 100% inhibition, respectively.
(§3) Table 3 provides details of the inhibitory constant (nM) of compounds of the invention at SIK1, SIK2 and SIK3 and other kinases.

Abl = target: T2, Abl (Homo sapiens, UniProt P00519); test: Abl kinase assay, IMAP fluorescence polarization; details: 50 or 100 μM ATP, average
T2 construct: purchased Life Technologies
Method: as §1, §2, §3

SIK3 = target: T3, SIK3 (Homo sapiens, UniProt Q9Y2K2); test: SIK3 kinase assay, IMAP fluorescence polarization; details: 50 or 100 μM ATP, average
T3 construct: purchased Life Technologies
Method: as §1, §2, §3

EPHA2 = target: T4, EPHA2 (Homo sapiens, UniProt P29317); test: EPHA2 kinase assay, IMAP fluorescence polarization; details: 50 or 100 μM ATP, Tris pH 8.5, average
T4 construct: purchased Life Technologies
Method: as §1, §2, §3

SIK2 = target: T5, SIK2 (Homo sapiens, UniProt Q9H0K1); test: SIK2 kinase assay, IMAP fluorescence polarization; details: 50 or 100 μM ATP, average
T5 construct: purchased Life Technologies
Method: as §1, §2, §3

SIK1 = target: T6, SIK1 (Homo sapiens, UniProt P57059); test: SIK1 kinase assay, IMAP fluorescence polarization; details: 50 or 100 μM ATP, average
T6 construct: purchased Life Technologies
Method: as §1, §2, §3

T5 sequence (Q9H0K1 whole entry): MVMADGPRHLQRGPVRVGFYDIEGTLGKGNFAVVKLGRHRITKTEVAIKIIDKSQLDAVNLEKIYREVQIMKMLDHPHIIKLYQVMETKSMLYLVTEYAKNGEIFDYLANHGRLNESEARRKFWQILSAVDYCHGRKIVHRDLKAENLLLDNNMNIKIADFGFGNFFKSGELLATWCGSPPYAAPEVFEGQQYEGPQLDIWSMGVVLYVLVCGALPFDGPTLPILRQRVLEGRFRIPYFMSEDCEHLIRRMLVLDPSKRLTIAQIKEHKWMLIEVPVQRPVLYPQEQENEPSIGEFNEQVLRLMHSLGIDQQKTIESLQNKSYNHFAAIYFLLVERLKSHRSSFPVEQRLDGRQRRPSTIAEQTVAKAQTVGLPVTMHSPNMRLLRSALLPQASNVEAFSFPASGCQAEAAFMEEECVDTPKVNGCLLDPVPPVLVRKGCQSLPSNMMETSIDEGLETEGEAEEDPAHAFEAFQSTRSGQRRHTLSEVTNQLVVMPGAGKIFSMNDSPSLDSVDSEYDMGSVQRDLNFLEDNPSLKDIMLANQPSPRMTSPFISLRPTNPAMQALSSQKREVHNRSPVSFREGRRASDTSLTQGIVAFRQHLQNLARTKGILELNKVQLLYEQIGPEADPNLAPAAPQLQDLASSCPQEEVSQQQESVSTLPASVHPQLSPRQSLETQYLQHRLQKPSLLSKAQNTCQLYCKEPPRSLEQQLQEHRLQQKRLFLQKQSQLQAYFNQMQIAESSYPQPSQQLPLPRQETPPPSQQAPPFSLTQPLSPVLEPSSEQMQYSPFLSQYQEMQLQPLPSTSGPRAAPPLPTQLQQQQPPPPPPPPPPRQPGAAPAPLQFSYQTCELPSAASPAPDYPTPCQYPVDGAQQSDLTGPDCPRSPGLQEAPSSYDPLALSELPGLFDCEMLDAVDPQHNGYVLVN
T1 sequence (P12931 whole entry): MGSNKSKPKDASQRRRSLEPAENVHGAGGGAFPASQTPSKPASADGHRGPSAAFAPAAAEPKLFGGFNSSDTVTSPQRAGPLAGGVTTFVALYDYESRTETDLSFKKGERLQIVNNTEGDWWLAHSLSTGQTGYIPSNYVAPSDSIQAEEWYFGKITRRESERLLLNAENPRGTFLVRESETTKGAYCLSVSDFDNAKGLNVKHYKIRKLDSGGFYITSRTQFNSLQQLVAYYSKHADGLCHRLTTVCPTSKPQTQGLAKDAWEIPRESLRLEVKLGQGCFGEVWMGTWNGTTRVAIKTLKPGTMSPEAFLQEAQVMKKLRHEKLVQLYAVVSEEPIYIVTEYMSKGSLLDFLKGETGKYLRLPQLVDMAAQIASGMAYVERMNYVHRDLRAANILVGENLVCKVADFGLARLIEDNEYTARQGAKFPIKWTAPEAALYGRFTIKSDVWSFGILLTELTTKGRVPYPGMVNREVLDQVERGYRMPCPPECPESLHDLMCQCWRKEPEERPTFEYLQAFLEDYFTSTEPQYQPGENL
T3 sequence (Q9Y2K2 whole entry): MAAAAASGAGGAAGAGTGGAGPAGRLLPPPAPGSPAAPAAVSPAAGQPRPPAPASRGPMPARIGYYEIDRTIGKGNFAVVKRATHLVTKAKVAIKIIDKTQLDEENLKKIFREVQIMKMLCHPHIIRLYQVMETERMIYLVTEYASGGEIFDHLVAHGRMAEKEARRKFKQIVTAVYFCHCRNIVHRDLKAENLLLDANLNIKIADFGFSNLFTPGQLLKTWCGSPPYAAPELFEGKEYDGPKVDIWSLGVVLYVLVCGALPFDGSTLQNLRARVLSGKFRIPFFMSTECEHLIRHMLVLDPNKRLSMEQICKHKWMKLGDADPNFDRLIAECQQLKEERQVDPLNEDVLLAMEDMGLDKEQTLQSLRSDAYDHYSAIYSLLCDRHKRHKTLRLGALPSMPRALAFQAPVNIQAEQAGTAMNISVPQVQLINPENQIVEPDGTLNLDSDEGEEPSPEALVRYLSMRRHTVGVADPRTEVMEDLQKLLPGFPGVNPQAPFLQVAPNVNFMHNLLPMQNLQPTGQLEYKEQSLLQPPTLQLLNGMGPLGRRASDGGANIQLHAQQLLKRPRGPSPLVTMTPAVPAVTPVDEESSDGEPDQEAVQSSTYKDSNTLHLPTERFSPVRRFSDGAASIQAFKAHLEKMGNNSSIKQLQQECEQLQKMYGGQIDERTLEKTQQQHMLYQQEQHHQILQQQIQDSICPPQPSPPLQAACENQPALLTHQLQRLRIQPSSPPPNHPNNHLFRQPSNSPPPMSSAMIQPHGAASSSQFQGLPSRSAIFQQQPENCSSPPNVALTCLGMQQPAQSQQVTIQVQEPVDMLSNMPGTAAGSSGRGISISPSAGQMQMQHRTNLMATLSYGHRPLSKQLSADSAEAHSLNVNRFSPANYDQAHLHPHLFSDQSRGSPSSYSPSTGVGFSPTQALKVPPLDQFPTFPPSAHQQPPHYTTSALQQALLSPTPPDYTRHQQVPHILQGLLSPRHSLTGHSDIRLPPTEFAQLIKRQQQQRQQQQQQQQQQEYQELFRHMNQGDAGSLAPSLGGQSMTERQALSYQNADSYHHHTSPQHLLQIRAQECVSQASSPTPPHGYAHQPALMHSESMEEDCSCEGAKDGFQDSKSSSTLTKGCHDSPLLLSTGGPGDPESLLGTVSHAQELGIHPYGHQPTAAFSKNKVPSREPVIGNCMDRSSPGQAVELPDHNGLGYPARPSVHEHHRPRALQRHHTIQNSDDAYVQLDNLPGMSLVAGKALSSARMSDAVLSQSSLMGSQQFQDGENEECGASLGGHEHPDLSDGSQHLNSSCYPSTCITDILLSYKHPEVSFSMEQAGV
T4 sequence (P29317 24-976): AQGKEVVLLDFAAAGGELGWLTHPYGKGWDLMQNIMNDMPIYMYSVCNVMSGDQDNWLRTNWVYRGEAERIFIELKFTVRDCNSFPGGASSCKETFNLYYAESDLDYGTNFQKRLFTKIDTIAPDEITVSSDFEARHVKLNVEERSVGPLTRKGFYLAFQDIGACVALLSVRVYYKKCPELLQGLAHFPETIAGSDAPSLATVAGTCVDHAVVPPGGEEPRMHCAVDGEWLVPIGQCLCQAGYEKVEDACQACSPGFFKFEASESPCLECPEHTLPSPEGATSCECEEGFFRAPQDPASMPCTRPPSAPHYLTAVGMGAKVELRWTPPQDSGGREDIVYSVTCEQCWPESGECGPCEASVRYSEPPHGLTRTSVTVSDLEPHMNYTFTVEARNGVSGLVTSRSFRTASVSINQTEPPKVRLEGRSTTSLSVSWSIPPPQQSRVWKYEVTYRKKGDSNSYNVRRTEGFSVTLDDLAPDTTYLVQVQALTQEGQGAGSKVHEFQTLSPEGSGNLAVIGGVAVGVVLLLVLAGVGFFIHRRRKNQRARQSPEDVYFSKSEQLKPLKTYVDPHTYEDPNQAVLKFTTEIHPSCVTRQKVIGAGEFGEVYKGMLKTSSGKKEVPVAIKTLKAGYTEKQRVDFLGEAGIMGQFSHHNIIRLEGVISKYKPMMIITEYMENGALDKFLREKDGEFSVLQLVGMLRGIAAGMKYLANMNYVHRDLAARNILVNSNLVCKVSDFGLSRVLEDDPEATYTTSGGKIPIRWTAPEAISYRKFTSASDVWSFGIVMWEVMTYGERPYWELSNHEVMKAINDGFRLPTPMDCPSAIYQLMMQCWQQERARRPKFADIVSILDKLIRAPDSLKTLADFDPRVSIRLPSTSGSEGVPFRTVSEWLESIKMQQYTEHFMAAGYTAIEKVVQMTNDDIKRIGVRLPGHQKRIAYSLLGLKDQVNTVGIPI
T6 sequence (P57059 whole entry): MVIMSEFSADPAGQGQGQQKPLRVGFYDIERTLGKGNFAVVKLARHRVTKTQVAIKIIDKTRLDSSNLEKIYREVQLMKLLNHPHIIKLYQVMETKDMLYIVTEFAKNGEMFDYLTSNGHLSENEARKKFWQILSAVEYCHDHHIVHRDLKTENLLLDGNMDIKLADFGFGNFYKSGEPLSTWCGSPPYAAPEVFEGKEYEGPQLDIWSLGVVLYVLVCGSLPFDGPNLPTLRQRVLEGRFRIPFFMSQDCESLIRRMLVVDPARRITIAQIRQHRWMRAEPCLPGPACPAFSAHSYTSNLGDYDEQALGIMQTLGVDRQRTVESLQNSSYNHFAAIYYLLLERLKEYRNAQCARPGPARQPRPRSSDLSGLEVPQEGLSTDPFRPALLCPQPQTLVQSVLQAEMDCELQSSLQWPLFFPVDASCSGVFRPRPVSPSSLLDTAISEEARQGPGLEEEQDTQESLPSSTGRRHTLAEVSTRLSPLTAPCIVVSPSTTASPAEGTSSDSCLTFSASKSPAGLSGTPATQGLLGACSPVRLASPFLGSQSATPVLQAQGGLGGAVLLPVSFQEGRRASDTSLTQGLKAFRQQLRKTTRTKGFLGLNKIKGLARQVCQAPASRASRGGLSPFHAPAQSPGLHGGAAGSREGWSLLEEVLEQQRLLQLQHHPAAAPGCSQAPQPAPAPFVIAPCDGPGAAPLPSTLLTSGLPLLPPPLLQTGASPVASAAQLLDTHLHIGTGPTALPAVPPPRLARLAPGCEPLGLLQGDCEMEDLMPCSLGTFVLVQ

| Compound | Ki (Src) | Ki (Abl) | Ki (SIK3) | Ki (EPHA2) | Ki (SIK2) | Ki (SIK1) |
| --- | --- | --- | --- | --- | --- | --- |
| Cc1cccc(F)c1-c1cc(NC2CNC2)c2cc(N)ncc2c1 [Example 3, N5-(azetidin-3-yl)-7-(2-fluoro-6-methyl-phenyl)isoquinoline-3,5-diamine] | 330 nM | 20.4 nM | 0.643 nM | 878 nM | 0.143 nM | 0.808 nM |
| Cc1cccc(F)c1-c1cc2cnc(N)cc2c(NC2CCN(C)CC2)c1F [Example 135, 6-Fluoro-7-(2-fluoro-6-methyl-phenyl)-N5-(1-methyl-4-piperidyl)isoquinoline-3,5-diamine] | 65.3 nM | 7.99 nM | 0.312 nM | 30.7 nM | 0.0936 nM | 0.361 nM |
| Cc1cccc(Cl)c1-c1cc(NC2CCNCC2)c2cc(N)ncc2c1 [Example 30, 7-(2-Chloro-6-methyl-phenyl)-N5-(4-piperidyl)isoquinoline-3,5-diamine] | 96.2 nM | 36.1 nM | 2.92 nM | 65.5 nM | 0.335 nM | 0.474 nM |
| Cc1cccc(F)c1-c1cc(N[C@@H]2CCN(C)C2)c2cc(N)ncc2c1 [Example 69, 7-(2-fluoro-6-methyl-phenyl)-N5-[(3R)-1-methylpyrrolidin-3-yl]isoquinoline-3,5-diamine] | 35.8 nM | 5.14 nM | 0.986 nM | > 1000 nM | 0.0972 nM | 0.3 nM |
| Cc1cccc(F)c1-c1cc(NC[C@H]2CCCCN2C)c2cc(N)ncc2c1 [Example 56, 7-(2-fluoro-6-methyl-phenyl)-N5-[[(2R)-1-methyl-2-piperidyl]methyl] isoquinoline-3,5-diamine] | 229 nM | 48 nM | 6.3 nM | 238 nM | 0.578 nM | 1.06 nM |
| Cc1cccc(F)c1-c1cc(N2CCC[C@H](CN(C)C)C2)c2cc(N)ncc2c1 [Example 60, 5-[(3R)-3-[(dimethylamino)methyl]-1-piperidyl]-7-(2-fluoro-6-methyl-phenyl)isoquinolin-3-amine] | 798 nM | 223 nM | 42.4 nM | > 1000 nM | 1.46 nM | 7.97 nM |
| Cc1cccc(F)c1-c1cc(C(=O)NC2CN(C)C2)c2cc(N)ncc2c1 [Example 100, 3-amino-7-(2-fluoro-6-methyl-phenyl)-N-(1-methylazetidin-3-yl)isoquinoline-5-carboxamide] | 41.4 nM | 3.65 nM | 61.4 nM | 131 nM | 4.41 nM | 11.8 nM |
| Cc1cccc(F)c1-c1cc(N2CCC[C@H](N(C)C)C2)c2cc(N)ncc2c1 [Example 82, 5-[(3S)-3-(dimethylamino)-1-piperidyl]-7-(2-fluoro-6-methyl-phenyl)isoquinolin-3-amine] | 93.9 nM | 10.4 nM | 10.3 nM | > 1000 nM | 0.269 nM | 1.25 nM |
| Cc1cccc(F)c1-c1cc(NC2CN(C)C2)c2cc(N)ncc2c1 [Example 68, 7-(2-Fluoro-6-methyl-phenyl)-N5-(1-methylazetidin-3-yl)isoquinoline-3,5-diamine] | 160 nM | 17.8 nM | 0.993 nM | 323 nM | 0.1 nM | 0.532 nM |
| Cc1cccc(F)c1-c1cc(NCC2CCNCC2)c2cc(N)ncc2c1 [Example 8, 7-(2-fluoro-6-methyl-phenyl)-N5-(4-piperidylmethyl)isoquinoline-3,5-diamine] | 16.5 nM | 1.4 nM | 1.02 nM | 5.15 nM | 0.108 nM | 0.546 nM |
| Cc1cccc(F)c1-c1cc(N[C@@H]2CCCNC2)c2cc(N)ncc2c1 [Example 25, 7-(2-fluoro-6-methyl-phenyl)-N5-[(3R)-3-piperidyl]isoquinoline-3,5-diamine] | > 1000 nM | 4.96 nM | 1.28 nM | > 1000 nM | 0.132 nM | 0.546 nM |
| Cc1cccc(F)c1-c1cc(NC[C@H]2CCN(C)C2)c2cc(N)ncc2c1 [Example 75, 7-(2-fluoro-6-methyl-phenyl)-N5-[[(3R)-1-methylpyrrolidin-3-yl]methyl] isoquinoline-3,5-diamine] | 45.2 nM | 10.3 nM | 2 nM | 120 nM | 0.19 nM | 0.618 nM |
| Cc1cccc(F)c1-c1cc(N2CCC[C@H](O)C2)c2cc(N)ncc2c1 [Example 107, (3S)-1-[3-amino-7-(2-fluoro-6-methyl-phenyl)-5-isoquinolyl]piperidin-3-ol] | 617 nM | 56.4 nM | 201 nM | > 1000 nM | 4.46 nM | 24.6 nM |
| Cc1cccc(F)c1-c1cc2cnc(N)cc2c(NC2CCNCC2)c1F [Example 134, 6-Fluoro-7-(2-fluoro-6-methyl-phenyl)-N5-(4-piperidyl)isoquinoline-3,5-diamine] | 12.3 nM | 1.94 nM | 0.452 nM | 25.1 nM | 0.132 nM | 0.558 nM |
| Cc1cccc(F)c1-c1cc(NC[C@@H]2CCCNC2)c2cc(N)ncc2c1 [Example 10, 7-(2-fluoro-6-methyl-phenyl)-N5-[[(3R)-3-piperidyl]methyl]isoquinoline-3,5-diamine] | 32.1 nM | 4.83 nM | 0.966 nM | 47.6 nM | 0.101 nM | 0.535 nM |
| Cc1cccc(F)c1-c1cc(NC2CNC2)c2ccncc2c1 [Example 51, N-(azetidin-3-yl)-7-(2-fluoro-6-methyl-phenyl)isoquinolin-5-amine] | 220 nM | 24.9 nM | 3.16 nM | 242 nM | 0.532 nM | 2.81 nM |
| Cc1cccc(Cl)c1-c1cc(NC2CCN(C)CC2)c2ncncc2c1 [Example 130, 6-(2-chloro-6-methyl-phenyl)-N-(1-methyl-4-piperidyl)quinazolin-8-amine] | 549 nM | > 10000 nM | 17.2 nM | 85.3 nM | 2.87 nM | 5.53 nM |
| CCN1CCC(Nc2cc(-c3c(C)cccc3F)cc3cnc(N)nc23)CC1 [Example 127, N8-(1-Ethyl-4-piperidyl)-6-(2-fluoro-6-methyl-phenyl)quinazoline-2,8-diamine] | 30.8 nM | 7.16 nM | 1.22 nM | 149 nM | 0.168 nM | 0.647 nM |
| CCN1CCC(Nc2cc(-c3c(C)cccc3F)c(F)c3cnc(N)cc23)CC1 [Example 118, N5-(1-Ethyl-4-piperidyl)-8-fluoro-7-(2-fluoro-6-methyl-phenyl)isoquinoline-3,5-diamine] | > 10000 nM | > 10000 nM | 77 nM | > 10000 nM | 6.2 nM | 10.2 nM |
| Cc1cccc(F)c1-c1cc(N2CC[C@@H](O)C2)c2cc(N)ncc2c1 [Example 106, (3R)-1-[3-amino-7-(2-fluoro-6-methyl-phenyl)-5-isoquinolyl]pyrrolidin-3-ol] | > 10000 nM | 28.8 nM | 553 nM | > 10000 nM | 19.5 nM | 123 nM |
